A short description of series [1]: Assay for the Determination of Metabolic Stability with Human Hepatocytes. Format: in vitro ADME. As to conditions: scaled with well stirred model. On the procedure:
Assay for the Determination of Metabolic Stability with Human Hepatocytes
The metabolic degradation of the test compound is assayed in a human hepatocyte suspension. Human hepatocytes (typically cryopreserved) are incubated in an appropriate buffer system (e.g. Dulbecco's modified eagle medium plus 3.5 μg glucagon/500 mL, 2.5 mg insulin/500 mL and 3.75 mg/500 mL hydrocortison) containing 5% species serum. Following a (typically) […] preincubation in an incubator (37° C., 10% CO2), 5 μl of test compound solution (80 μM; from 2 mM stock solution in DMSO diluted 1:25 with medium) are added into 395 μl hepatocyte suspension (cell density in the range 0.25-5*10^6 cells/mL, typically 1*10^6 cells/mL; final concentration of test compound 1 μM, final DMSO concentration […]). The cells are incubated for six hours (incubator, orbital shaker) and samples (25 μl) are taken at 0, 0.5, 1, 2, 4 and 6 hours. Samples are transferred into acetonitrile and pelleted by centrifugation (5 min). The supernatant is transferred to a new 96-deepwell plate, evaporated under nitrogen and resuspended. The decline of parent compound is analyzed by LC-MS/MS.
The intrinsic clearance CL_[…] is calculated as follows: CL_[…]=Dose/AUC=(C0/CD)/(AUD+clast/k)*1′000/60 (C0: initial concentration in the incubation [μM], CD: cell density of vital cells [10^6 cells/mL], AUD: area under the data [μM*h], clast: concentration of last data point [μM], k: slope of the regression line for parent decline [h^−1])
The calculated in vitro hepatic intrinsic clearance can be scaled up to the intrinsic in vivo hepatic clearance and used to predict hepatic in vivo blood clearance (CL) by the use of a is liver model (well stirred model): CL_[…]_INVIVO [ml/min/kg]=(CL_[…] [μL/min/10^6 cells]* hepatocellularity[10^6 cells/g liver]*liver factor[g/kg bodyweight])/1′000 CL[ml/min/kg]=CL_[…]_INVIVO [ml/min/kg]*hepatic blood flow [ml/min/kg]/(CL_[…]_INVIVO [ml/min/kg]+hepatic blood flow [ml/min/kg]) Qh[%]=CL[ml/min/kg]/hepatic blood flow[ml/min/kg]) (Hepatocellularity, human: 120*10^6 cells/g liver; lver factor, human: 25.7 g/kg bodyweight; blood flow, human: 21 ml/(min*kg))
The predicted human hepatic in vivo blood clearance (CL) of selected compounds in the metabolic stability assay described above are listed in Table 16.

In series [2] the target is neutrophil elastase in human plasma (Homo sapiens (Human), UniProt P08246). As to the kind of experiment: Assay for the Determination of Neutrophil Elastase Inhibitory Activity in Human Plasma. Format: biochemical. The following applies: neutrophil elastase enriched human plasma (zymosan-stimulated blood). On the procedure:
Assay for the Determination of Neutrophil Elastase Inhibitory Activity in Human Plasma
Citrated blood from human healthy donors is mixed with zymosan suspension and incubated at room temperature. This leads to the stimulation of neutrophils and the release of neutrophil elastase into the plasma. The stimulated blood is centrifuged to generate the neutrophil elastase enriched plasma.
Preparation of Zymosan Working Solution:
• single 45 ml blood sample is taken into a 50 ml tube containing citrate (3.13%, 5 mL) and the tube is gently inverted 4 times. • Immediately after blood sampling, zymosan working solution (5 mL) is added. • After the addition of zymosan working solution, the tubes are capped, mixed gently and incubated at 22° C. for 15 min on a shaker at 20 rpm. • Make 10 ml aliquots after the incubation time. • Centrifuge the 15 ml tubes at 800 g for […] at 4° C. in a Jouan centrifuge. • Harvest the plasma and make 1-5 ml aliquots. • Store the plasma at −80° C.
Various concentrations of the neutrophil elastase inhibitor are incubated with plasma. Subsequently, the enzyme activity is measured using the fluorogenic substrate MeOSuc-Ala-Ala-Pro-Val-AMC (Bachem Cat. No. 1-1270, substrate concentration: 250 μM, pH 7.5, 25 mM TRIS buffer, 250 mM NaCl) in analogous fashion as described for the human neutrophil assay. A dose response curve is generated to calculate the EC50 of the inhibitor. The analysis of the data is performed by the calculation of the percentage of fluorescence in the presence of the test compound compared to the fluorescence of the vehicle control after subtracting the background fluorescence: An inhibitor of the neutrophil elastase enzyme will give values between 100% control (no inhibition) and 0% control (complete inhibition). The human plasma shift of selected compounds can be calculated using the following equation: Human plasma shift=(EC50 in human plasma assay)/(IC50 in human neutrophil elastase assay) The EC50 values of selected compounds in the human plasma assay described above are listed in Table 14.

pEC50: −log10 of the molar value.

Sequence of neutrophil elastase in human plasma (P08246 30-267): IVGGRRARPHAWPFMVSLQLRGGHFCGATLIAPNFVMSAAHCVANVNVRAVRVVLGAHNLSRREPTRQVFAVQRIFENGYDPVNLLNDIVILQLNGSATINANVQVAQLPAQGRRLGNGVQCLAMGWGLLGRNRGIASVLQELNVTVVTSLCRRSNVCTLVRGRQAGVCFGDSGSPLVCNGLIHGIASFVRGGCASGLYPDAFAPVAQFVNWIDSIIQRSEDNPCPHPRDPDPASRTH

`CS(=O)(=O)c1cc(C#N)ccc1[C@H]1NC(=O)N(c2cccc(C(F)(F)F)c2)C2=C1C(=O)CCC2` (single isomer, unassigned) [Example 18A]: the “CL (predicted human hepatic in vivo blood clearance)” value in series [1] was 0 mL/min/kg. In series [2], this molecule had a negative-log EC50 (pEC50) of 8.52.

Take `CS(=O)(=O)c1cc(C#N)ccc1[C@H]1NC(=O)N(c2cccc(C(F)F)c2)C2=C1C(=O)CCC2` (single isomer, unassigned) [Example 19A]: the “CL (predicted human hepatic in vivo blood clearance)” value in series [1] is 0 mL/min/kg. In series [2], this molecule had a pEC50 of 8.70.

As to `CNC(=O)N1C(=O)N(c2cccc(C(F)(F)F)c2)C2=C(C(=O)CCC2)[C@H]1c1ccc(C#N)cc1S(C)(=O)=O` (single isomer, unassigned) [Example 47A], the “CL (predicted human hepatic in vivo blood clearance)” value in series [1] was 0 mL/min/kg. In addition, the pEC50 in series [2] was 9.00.

For the molecule `CCS(=O)(=O)c1cc(C#N)ccc1[C@H]1NC(=O)N(c2cccc(C(F)(F)F)c2)C2=C1C(=O)CCC2` (single isomer, unassigned) [Example 54A], in series [1], the “CL (predicted human hepatic in vivo blood clearance)” value is 2 mL/min/kg. The same molecule gave a pEC50 in series [2] of 9.00.

In the case of `CC(C)(O)CNC(=O)N1C(=O)N(c2cccc(C(F)(F)F)c2)C2=C(C(=O)CCC2)C1c1ccc(C#N)cc1` (stereo not shown) [Example 70.9], the “CL (predicted human hepatic in vivo blood clearance)” value in series [1] was 0 mL/min/kg. In series [2], this molecule showed a pEC50 of 7.82.

Source of the values: patent USRE47493E1, “Substituted bicyclic dihydropyrimidinones and their use as inhibitors of neutrophil elastase activity” (Boehringer Ingelheim International GmbH, priority 2014, dated 2019).
